Test results reported in ChEMBL document CHEMBL1131552, “Identification of side chains on 1,2,5-thiadiazole-azacycles optimal for muscarinic m1 receptor activation” (Bioorg Med Chem Lett, 1998).

Assays:
[1] = target: T1, Muscarinic acetylcholine receptor M2 (Homo sapiens, UniProt P08172)
T1 sequence (P08172 whole entry): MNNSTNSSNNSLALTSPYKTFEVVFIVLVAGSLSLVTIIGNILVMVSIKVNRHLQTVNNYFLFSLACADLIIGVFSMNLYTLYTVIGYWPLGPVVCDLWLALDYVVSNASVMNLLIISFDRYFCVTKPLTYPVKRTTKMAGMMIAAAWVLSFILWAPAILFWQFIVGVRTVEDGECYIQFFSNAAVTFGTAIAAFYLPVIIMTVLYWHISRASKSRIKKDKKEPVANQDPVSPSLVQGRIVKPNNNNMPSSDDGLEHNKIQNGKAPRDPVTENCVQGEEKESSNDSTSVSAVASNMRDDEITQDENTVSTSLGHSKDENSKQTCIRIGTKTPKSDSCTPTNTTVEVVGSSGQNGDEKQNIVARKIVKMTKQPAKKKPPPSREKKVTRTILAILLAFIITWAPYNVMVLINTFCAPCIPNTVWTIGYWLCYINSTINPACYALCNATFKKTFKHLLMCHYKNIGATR
Description: Stimulation of cAMP in CHO cells expressing human m2 receptor

[2] = target: T2, Muscarinic acetylcholine receptor M1 (Homo sapiens, UniProt P11229)
T2 sequence (P11229 whole entry): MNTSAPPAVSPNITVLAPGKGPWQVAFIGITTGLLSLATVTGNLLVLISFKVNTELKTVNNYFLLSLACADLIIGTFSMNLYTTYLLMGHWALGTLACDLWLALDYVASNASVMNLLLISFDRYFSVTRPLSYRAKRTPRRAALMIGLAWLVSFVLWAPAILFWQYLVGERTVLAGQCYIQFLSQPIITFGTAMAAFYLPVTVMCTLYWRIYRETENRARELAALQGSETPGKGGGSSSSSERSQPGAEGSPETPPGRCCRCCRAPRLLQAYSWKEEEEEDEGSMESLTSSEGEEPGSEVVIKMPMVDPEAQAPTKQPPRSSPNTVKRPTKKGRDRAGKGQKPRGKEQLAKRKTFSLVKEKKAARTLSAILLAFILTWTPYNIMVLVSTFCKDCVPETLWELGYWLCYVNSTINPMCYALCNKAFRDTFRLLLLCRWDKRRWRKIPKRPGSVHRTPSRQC
Description: Stimulation of phosphoinositide hydrolysis in A9L cells expressing human m1 receptor

[3] = target: Muscarinic acetylcholine receptor
[4] = Potency ratio of EC50 of the CHO cell lines to that of A9L cell lines was calculated; assay type: functional
[5] = target: T2, Muscarinic acetylcholine receptor M1; experiment: Effective concentration required for stimulation of phosphoinositide hydrolysis in A9L cells expressing human m1 receptor; assay type: functional, cell-based
[6] = target: T3, Muscarinic acetylcholine receptor M1 (Homo sapiens) (UniProt P11229); experiment: Stimulation of phosphoinositide hydrolysis in BHK cells; assay type: functional, cell-based
T3 sequence (whole entry): T2 sequence (P11229 whole entry)

[7] = target: Muscarinic acetylcholine receptor; experiment: Binding affinity against muscarinic receptor in rat brain membranes using oxotremorine-M as ligand; assay type: cell membranes

Structure (SMILES) | EC50 [1] [nM] | IC50 [3] [nM] | also measured
C(#Cc1ccccc1)COc1nsnc1[C@@H]1CN2CCC[C@H]1C2 | 227 | 66 | EC50 [2]: 28.3 nM
C(#Cc1ccccc1)COc1nsnc1C1CN2CCC1CC2 (stereo not given) | 62 | 4.7 | EC50 [2]: 15.7 nM
CN1CCC=C(c2nsnc2OCC#Cc2ccccc2)C1 | 240 | 8.5 | EC50 [2]: 110 nM; Potency ratio [4]: 2
C(#Cc1ccccc1)CSc1nsnc1[C@H]1CN2CCC[C@H]1C2 | 2 | 1.7 | EC50 [5]: 0.2 nM
c1ccc(CCCSc2nsnc2C2CN3CCC2CC3)cc1 (stereo not given) |  | 14 | 
CCCCCCOc1nsnc1[C@H]1CN2CC[C@H]1C2 |  | 0.73 | 
CCCOc1nsnc1C1=CCCN(C)C1 |  | 1.6 | 
CN1CCC=C(c2nsnc2SCc2ccccc2)C1 |  | 5.9 | 
CCOc1nsnc1C1=CCCN(C)C1 |  | 5.7 | 
CN1CCC=C(c2nsnc2OCCCCc2ccccc2)C1 |  | 20 | 
CCCCCCOc1nsnc1C1CN2CCC1CC2 (stereo not given) |  | 4.3 | 
COc1nsnc1C1=CCCN(C)C1 |  | 22 | 
CCCCCCCOc1nsnc1C1=CCCN(C)C1 |  | 6.2 | 
C(#Cc1ccccc1)CSc1nsnc1[C@@H]1CN2CCC[C@H]1C2 | > 10000 | 363 | EC50 [2]: 1 nM
CN1CCC=C(c2nsnc2OCc2ccccc2)C1 |  | 8 | 
CCCCCCOc1nsnc1[C@@H]1CN2CC[C@H]1C2 (stereo in doubt; 26) |  | 6 | 

Now from value to compound, other results behind:

EC50 [1] [nM] | IC50 [3] [nM] | Structure (SMILES) | also measured
 | 1.2 | CCCCCCOc1nsnc1[C@H]1CN2CCC[C@H]1C2 | 
11 | 0.8 | C(#Cc1ccccc1)COc1nsnc1[C@H]1CN2CCC1C2 (stereo not given in full) | EC50 [2]: 0.99 nM
 | 15 | CN1CCC=C(c2nsnc2OCCc2ccccc2)C1 | 
 | 23 | CN1CCC=C(c2nsnc2SCCc2ccccc2)C1 | 
139 | 42 | C(#Cc1ccccc1)CSc1nsnc1[C@@H]1CN2CC[C@H]1C2 | EC50 [2]: > 100 nM
 | 1.3 | CN1CCC=C(c2nsnc2SCCCc2ccccc2)C1 | 
 | 30 | CCCCCCCCOc1nsnc1C1=CCCN(C)C1 | 
 | 16 | CCCCCCOc1nsnc1[C@@H]1CN2CC[C@H]1C2 (stereo in doubt; 13) | 
2250 | 78 | C(#Cc1ccccc1)COc1nsnc1[C@H]1CN2CCC[C@@H]1C2 | 
 | 13 | CN1CCC=C(c2nsnc2OCCCc2ccccc2)C1 | 
 | 2 | CCCCCOc1nsnc1C1=CCCN(C)C1 | 
779 | 14 | C(#Cc1ccccc1)COc1nsnc1C12CN3CC1C2C3 | EC50 [2]: 70.5 nM
1080 | 41 | C(#Cc1ccccc1)COc1nsnc1[C@H]1CN2CC[C@@H]1C2 | EC50 [2]: 159 nM
28000 | 167 | COc1cccc(C#CCO/N=C2\CN3CCC2C3)c1 (stereo not given) | Max PI [6]: 14%; EC50 [2]: > 1000 nM
1100 | 20 | C(#Cc1ccccc1)COc1nsnc1[C@@H]1CN2CC[C@H]1C2 | EC50 [2]: 67.3 nM
29 |  | C(#Cc1ccccc1)COc1nsnc1[C@@H]1CN2CCC[C@@H]1C2 | IC50 [7]: 3.4 nM
 | 63 | CCCCCCOc1nsnc1[C@@H]1CN2CCC[C@H]1C2 | 
 | 35 | c1ccc(CCCSc2nsnc2[C@@H]2CN3CCC[C@H]2C3)cc1 | 
9 | 1.2 | C(#Cc1ccccc1)COc1nsnc1[C@H]1CN2CCC[C@H]1C2 | EC50 [2]: 0.5 nM
 | 1.3 | c1ccc(CCCSc2nsnc2[C@H]2CN3CCC[C@H]2C3)cc1 | 
 | 1.7 | c1ccc(CCCSc2nsnc2[C@H]2CN3CC[C@H]2C3)cc1 | 
